Patent publication US12084411B2, “Hinokitiol analogues, methods of preparing and pharmaceutical compositions thereof” (The Board of Trustees of the University of Illinois, priority 2018, dated 2024)

Columns and labels:
[1] = Iron efflux from liposomes using ferrozine; assay type: biochemical; conditions: for transport of ferrous and ferric iron across model liposomal membranes: 5 μM small molecule; for iron (III) efflux from POPC liposomes: 30 mM FeCl3 inside
Procedure: Iron (III) efflux from POPC liposomes was determined similar to previously reported (64). POPC liposomes were prepared as similarly reported (65) using 30 mM FeCl3, 62.5 mM citrate at pH=7.0 in 25 mM Mes/Tris buffer. External iron was removed by size exclusion chromatography using Sephadex G-50 and eluting with external buffer. External buffer consisted of 62.5 mM ascorbate at pH=7.0 in 25 mM Mes/Tris buffer. The liposomes were diluted to 1 mM phosphorus in this buffer. Ferrozine (Sigma 160601) was added (100X stock in external buffer) to a final concentration of 500 μM. Liposomal suspension was then transferred to a 96-well plate, and either DMSO or 5 μM hinokitiol, C2deOHino, deferiprone, or PIH (40X stock solution in DMSO) were added to initiate the experiment. The OD562 was determined every minute over the course of 2 hours using a plate-reader with continuous shaking at 30° C. to detect the relative amounts of external ferrozine-iron chelate at the indicated times. After 2 hours, liposomes were lysed with Triton-X to give 100% iron efflux.
Iron (II) efflux was performed as described above, however, the internal buffer alternatively consisted of 30 mM FeSO4, 62.5 mM ascorbate at pH=7.0 in 25 mM Mes/Tris buffer and Triton-X lysis was performed after 1 hour.
The rates of iron efflux with increasing concentrations of intraliposomal iron and/or hinokitiol were determined as described above using the indicated concentration of iron and hinokitiol. For the varying concentrations of iron, hinokitiol (10 μM) was added to the POPC liposomes, and the change in absorbance at 562 nm was determined over 2 hours. For the varying concentrations of hinokitiol, 30 mM intraliposomal iron was used as described above. The concentration of iron outside of liposomes was determined using the extinction coefficient for ferrozine-iron (27,900 M^−1 cm^−1) (66). This was used to determine the amount of iron released from liposomes at the indicated times using the total volume for each experiment. Rates of iron efflux were determined after one hour of hinokitiol treatment.

DMT1-deficient zebrafish = conditions: two days; for hemoglobinization (GFP-positive erythroids): 1 μM in water from 24 hpf; for number of fish with high hemoglobin levels (o-dianisidine): heterozygous cross of +/cdy fish
Procedure: The morpholinos (MOs) were purchased from GeneTools, LLC (Philomath, OR). The sequences of the MO used were as follows: dmt1 MO: 5′-[…]-3′; mfrnl MO: 5′-[…]-3′. Zebrafish embryos at the 1-cell stage were injected with MOs as previously described (72, 78). o-dianisidine staining for hemoglobinized cells in embryos was as previously described (79). Quantification by flow cytometry using fluorescently labeled erythrocytes from the transgenic Tg(globinLCR:eGFP) line (50) was performed as previously described (72, 75). Semi-quantitative RT-PCR of dmt1 mRNA in morphants was performed using custom designed probes as previously described (80). The sequences of the dmt1 primers are as follows: 5′-[…]-3′ (Fwd); 5′-[…]-3′ (Rev). The sequences of the control actb primers were as follows: 5′-[…]-3′ (Fwd); 5′-[…]-3′ (Rev).
Either mutant or morphant embryos were allowed to develop to >24 hours post fertilization (hpf), then dechorionated with pronase as previously described (81). The dechorionated embryos or morphants were then incubated in the presence of 1 μM hinokitiol (or vehicle) and 10 μM iron (III) citrate for an additional forty-eight hours. Vehicle treated embryos were exposed to […]. C2deOHino (1 μM) with iron (III) citrate (10 μM) was used as a negative control. Control and either mutant or morphant embryos at ˜72 hpf were either (a) directly stained by o-dianisidine (79) or (b) mechanically homogenized as previously described for flow cytometry (75, 78).

wild-type yeast (WT) = experiment: Toxicity to wild type yeast (structure-activity study, FIG. 25)
Procedure: Growth rescue in yeast was performed similar to previously reported (20) using 10 μM hinokitiol in low iron SD liquid media containing 10 μM FeCl3 in a 96-well plate unless otherwise noted. Wild type and fet3Δftr1Δ controls treated with vehicle (DMSO) were performed under identical conditions using the same low iron SD media containing 10 μM FeCl3 in the absence of hinokitiol. Yeast were grown overnight in YPD media and diluted at an OD600 of 0.1 in SD media, diluted 10-fold, and incubated at 30° C. with continuous shaking (200 rpm). The OD600 was obtained 24-48 hours after inoculation unless otherwise noted.
Small molecule dose-response (FIG. 1F) with hinokitiol and C2-deoxy hinokitiol (C2deOHino, see synthesis below) was determined by addition of the small molecule (40X stock solution in DMSO) to give the indicated final concentrations.

fet3Δftr1Δ yeast = experiment: Fe3+ uptake assay in yeast; assay type: cell-based, Saccharomyces cerevisiae
Procedure: Iron (III) uptake into wild type and fet3Δftr1Δ yeast was adapted from Kosman and coworkers (56). Overnight yeast cultures were repeatedly centrifuged and rinsed with water. The cell pellet was resuspended in MilliQ water, and diluted in SD media without FeCl3. The cells were incubated at 30° C. for 3 hours, centrifuged and rinsed with water twice. The cells were then suspended to 3×10^7 cells/mL in SD media containing 50 mM sodium citrate and 2% glucose. Hinokitiol or C2deOHino (from 40X stocks in DMSO) was added to a final concentration of 100 μM before ^55FeCl3 ([…]) was added to the yeast suspensions. The suspension was continuously homogenized before aliquots were taken and diluted with 10 mL of room temperature water. Cells were then collected via vacuum filtration through a 0.45 μm nitrocellulose filter (Millipore HAWP), and rinsed with room temperature water (×5 of 100 mL). The filters were then transferred to a scintillation vial containing 3 mL of scintillation cocktail for measuring radioactivity using a liquid scintillation counter.

J774 macrophages = experiment: Temporal imaging of cytosolic iron levels in J774 macrophages; assay type: cell-based, mouse; conditions: for calcein green fluorescence after reversal of the gradient: external FeCl3 100 μM at t=12 min; for calcein green fluorescence after small molecule addition: iron-loaded cells, 100 μM small molecule at t=5 min
Procedure: To assess for the capacity for hinokitiol to reversibly and autonomously transport iron across the plasma membrane through the creation of artificial iron gradients, J774 macrophages were grown in Ibidi dishes (Ibidi NC0723624) to ˜80% confluency before incubation with J774 Complete media containing 5 mM ascorbic acid and 200 μM FeSO4. The cells were incubated for 1.5 hours, media was aspirated, and the cells were rinsed with PBS. The cells were then incubated with calcein green-AM (1 μM) in DMEM for 20 minutes at 37° C. The media was aspirated and cells were rinsed (×2) with PBS before DMEM (pH=7.4 in 10 mM HEPES) and 1 mM probenecid (Sigma P8761) was added. Calcein green fluorescence was then imaged on a LSM880 microscope at 37° C. with 5% CO2 at the indicated time points for 30 minutes. Hinokitiol (100 μM final concentration), C2deOHino (100 μM final concentration), or DMSO (all from 1000X stocks in 50 μL DMEM) were added at 5 minutes, and a solution of FeCl3 (100 μM final concentration, in 50 μL DMEM) was added at 12 minutes. Fluorescence in each image at each time point was analyzed by ImageJ analysis then normalized to the fluorescence at t=0 for each image using >100 cells per experiment.

[2] = DMT1-deficient morphant zebrafish

| SMILES | transport of ferrous and ferric iron across model liposomal membranes [1] | iron (III) efflux from POPC liposomes [1] | hemoglobinization (GFP-positive erythroids) (DMT1-deficient zebrafish; [2]) | number of fish with high hemoglobin levels (o-dianisidine) (DMT1-deficient zebrafish) | toxicity to wild type yeast (wild-type yeast (WT)) | 55Fe uptake into fet3Δftr1Δ yeast (fet3Δftr1Δ yeast) | calcein green fluorescence after reversal of the gradient (J774 macrophages) | calcein green fluorescence after small molecule addition (J774 macrophages) | observable toxicity (DMT1-deficient zebrafish; DMT1-deficient morphant zebrafish, 1 μM) |
| --- | --- | --- | --- | --- | --- | --- | --- | --- | --- |
| CC(C)c1cccc(=O)cc1 [C2deOHino, C2-deoxy hinokitiol] | minimal transport | no efflux up to 100 μM | no effect | no effect | no biological activity | no uptake up to 100 μM | no effect | no effect |  |
| CC(C)c1cccc(=O)c(O)c1 [hinokitiol] | autonomously transports both ferrous and ferric iron | dose- and temperature-dependently promoted iron (III) efflux | promoted hemoglobinization | increased the number of fish exhibiting high hemoglobin levels | kills wild-type yeast (WT) only at high concentrations | dose-dependent increase in ^55Fe uptake from 5 to 100 μM | quenching of calcein green fluorescence was observed | rapidly increased calcein green fluorescence | without observable toxicity |
